Consider 16 molecules from patent publication US20050069999A1, “Sh3 domain binding inhibitors” (priority 2001, published 2005).

For series [1], the target named is T1, Sam68ΔC and Fyn-SH3 binding (Homo sapiens, UniProt Q07666).
T1 construct: (Sam68ΔC) [Sam68(331-443): made by Santa Cruz Co.]; purchased Santa Cruz Sam68(331-443); Fyn(85-139) AC
In words: SH3 domain binding inhibition test 1: Sam68ΔC bound to Fyn-SH3 beads, Western blot; inhibition ratio from band intensity (Test Examples 1 and 4). On the set-up: species or system recombinant human Sam68ΔC; mouse recombinant Fyn SH3 domain. The settings on record: for inhibition at 60 µM / inhibition at 150 µM: read-out: The inhibition ratio (%) of the compound against SH3 domain binding. On the procedure: (1) Treatment of Proteins Containing the Proline-Rich Sequences with the Compounds.
The recombinant human Sam68 containing the 2 proline-rich sequences at the C terminal out of 5 proline-rich sequences in Sam68 containing proline-rich sequences (Sam68ΔC) [Sam68(331-443): made by Santa Cruz Co.], 0.25 μg was added to 1 mL of RSB buffer (10 mmol/L Tris-HCl, pH 7.6, 10 mmol/L NaCl, 1.5 mmol/L MgCl2), which is a hypotonic buffer solution containing 0.1% BSA (bovine serum albumin) [bovine serum albumin (F-V): made by Nakaraitesk] to prepare a Sam68ΔC solution. The compound was dissolved in dimethylsulfoxide (DMSO) to prepare a 10 mmol/L solution in DMSO. […] The same amount of DMSO was added to each sample. The compound was subjected to the reaction with Sam68ΔC by incubating the mixture at 37° C. for 6 hours with rotation by a roller culture machine.
(2) Treatment of Proteins Containing the SH3 Domain with the Proteins Containing the Proline-Rich Sequences Treated with the Compounds.
The Sam68ΔC solution treated with the compound, which was obtained in (1), was applied to 5 μL of Fyn-SH3-agarose beads (Fyn-SH3 beads) [Fyn(85-139) AC; made by Santa Crutz Co.], which was a mouse recombinant protein of the Fyn SH3 domain containing the SH3 domain bound to agarose beads. The binding reaction of the Sam68ΔC reacted with the compounds with Fyn-SH3 beads containing the SH3 domain were carried out at 4° C. for 16 hours with slow rotation by the roller culture machine. After the reaction, a resulting complex of Sam68ΔC and Fyn-SH3 beads was precipitated by centrifugation at […] for 3 minutes at 4° C., and then 1 mL of the TritonX/Np40 extraction buffer containing detergents [50 mmol/L Tris-HCl buffer, pH 7.4, 150 mmol/L NaCl, 1 mmol/Lethylenediaminetetraacetic acid (EDTA), 1% TritonX-100, 0.5% Nonidet P-40] was added thereto. The mixture was rotated slowly at 4° C. for 10 minutes by the roller culture machine, and precipitated and washed twice in a similar manner to that as described above. To the complex of Sam68ΔC and Fyn-SH3 beads washed above, 30 μL of Lemery's sample buffer [Protein Chemistry I-Isolation and Purification, Tokyo Kagaku Dojin, p. 211 (1976)] was added, and then the mixture was mixed well and heated at 100° C. for 10 minutes. After precipitating the beads at 1000 ppm for 5 minutes at 25° C. by a centrifuge, the supernatant was subjected to 10% polyacrylamide gel electrophoresis.
(3) Detection of Sam68ΔC Bound to the Fyn-SH3 by Western Blotting.
Sam68ΔC in the supernatant was detected by Western blotting as follows. First, the resulting gel performed the electrophoresis, which was obtained in (2), was blotted onto a nitrocellulose membrane with pore size of 0.45 μm [Protran; made by Schleicher and Schuell Co.]. After non-specific binding of the membrane was blocked by incubating the membrane at 4° C. overnight in phosphate buffer (PBS) containing 0.25% gelatin and 0.2% Tween-20 (PBS-TG), the membrane reacted with mouse anti GST antibody conjugated with horse radish peroxidase (HRP) [GST (B-14) HRP; made by Santa Crutz Co.], which was diluted 1000 times with PBS-TG, for 2 hours. After washing with PBS containing 0.2% Tween 20 (PBS-T), the detection was carried out by the chemo-luminescence reaction using ECL reagent (Amersham Pharmacia Biotech Co.).
The inhibition ratios of the compound against the SH3 domain binding were calculated as follows based on the plot of the results of the Test Example 1. The intensity of the chemo-luminescent bands of Fyn-SH3 and Sam68ΔC developed on a film was measured by a gel-scanner (TYOBO). The relative intensity of Sam68ΔC band against the intensity of Fyn-SH3 band was obtained by dividing the Sam68ΔC band intensity by the Fyn-SH3 band intensity. The ratio of the Fyn-SH3 band intensity to the Sam68ΔC band intensity was set to be 100% when no compound was added. […]
(In general: Immunoblotting shows a protein as a band on a membrane.)

Series [2] relates to HIV-1 LAI strain. In words: HIV-1 growth inhibition test (RT assay) in MT2 cells. It is filed as cell-based. As to conditions: MT2 cells, 3, 5, 7 and 9 days after infection; 1, 5, 10, 25 and 50 mmol/L as printed; FIGS. 9-11 Compound 1, FIGS. 12-14 PP2. On the procedure: (1) HIV-1 Infection and Growth Inhibition Experiment.
MT2 cells (T cell strain) were suspended in RPMI1640 medium (GIBCO No.26140-076) supplemented with 10% fetal calf serum (GIBCO, No.26140-079) at 2×10^5 cells/mL and distributed into the each well of 24 well plates (24 well plate: Coster No. 3526) by 1 mL per well. HIV-1 LAI strain {pLAI that contains DNA clone of the whole genome [GeneBank accession No. K02013 Virology 185:661 (1991)] was transfected to HeLa cells by using FuGENE6 Transfection Reagent (Roche Co. No. 1814443), incubated for 2 days and the supernatant was used.} was inoculated to each well at a final concentration of 500 cpm/μL and incubated at 37° C. overnight (virus infection). […]
HIV-1 was determined by the RT assay (Reverse Transcriptase sassy) according to the method described in J. Virol., Vol. 38, p. […]
To 5 μL of the culture supernatant obtained in (1), 25 μL of RT cocktail {50 mmol/L Tris-HCl pH 7.5, 50 mmol/L EDTA, 75 mmol/L KCl, 5 mmol/L MgCl2, 5 μg/mL Poly(A) [Pharmacia, No. 27-4110-01], 1.6 μg/mL oligo(dT)12-18 [Pharmacia, No. 27-7858-01], 5 mmol/L DTT (dithiothreitol), 0.05% NP-40 and 10 PCi/ml [α-^32P]dTTP} was added, and the mixture was incubated at 37° C. for 2 hours. […] The amount of HIV-1 was measured as RT activity count (cpm/μL) with a MICROBRTA PLUS liquid scintillation counter (Perkin Elmer). […]

Series [3] has as its system MT2 cells. In words: Cyto-toxicity test, Trypan blue live cell count. It is filed as cell-based. The settings on record: 10 μmol/L, incubated for 3 days. On the procedure: MT2 cells (T cell strain) were suspended in RPMI1640 medium (GIBCO, No. 26140-076) supplemented with 10% fetal calf serum (GIBCO, No. 26140-079) at 2×10^5 cells/mL and distributed into each well of 96 well plates [96 well plate: Coster] at 100 μL per well. The compound was added to each well and incubated for 3 days. The cultures were observed under a microscope to examine the condition of cells and cells were harvested, stained with 0.4% Trypan blue (SIGMA, T-8154) and live cells were counted.

Where [4] appears, read: Concentration of the compound 20 μmol/L.
Where [5] appears, read: Concentration of the compound 100 μmol/L.
[6] abbreviates: Concentration of the compound 60 μmol/L.
[7] abbreviates: Concentration of the compound 150 μmol/L.

T1 sequence (Q07666 331-443, stated change not applied): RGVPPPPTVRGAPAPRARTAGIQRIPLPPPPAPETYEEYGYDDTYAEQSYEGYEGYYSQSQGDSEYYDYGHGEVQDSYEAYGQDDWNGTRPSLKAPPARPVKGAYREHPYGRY

For the molecule `C[C@H]1C/C=C/[C@H]2[C@@H]3O[C@]3(C)[C@@H](C)[C@H]3[C@H](Cc4ccccc4)NC(=O)[C@]32OC(=O)O/C=C/[C@@](C)(O)C1=O` [Compound 13, Cytochalasin E], the figures for the “The inhibition ratio (%) of the compound against SH3 domain binding” value (“The inhibition ratio (%) of the compound” below) in series [1] (setting [4]) and in series [1] (setting [5]) were 0% and 21%, respectively.
For the molecule `C/C1=C\CC(=O)OC23C(=O)NC(Cc4ccc(O)cc4)C2C(C)C2(C)OC2C3/C=C/CC(C)C1=O` (stereo not drawn) [Compound 16], the inhibition at 60 µM in series [1] (setting [6]) was 67%. The inhibition at 150 µM in series [1] (setting [7]) was found to be 78%.
Take `COc1ccc(CC2NC(=O)C34OC(=O)OCCC(C)(O)C(=O)C(C)C/C=C/C3C3OC3(C)C(C)C24)cc1` (stereo not drawn) [Compound 17]: the inhibition at 150 µM in series [1] (setting [7]) came to 36%.
In the case of `C=C1C(C)C2C(Cc3ccc(OC)cc3)NC(=O)C23OC(=O)O/C=C/C(C)(O)C(=O)C(C)C/C=C/C3C1O` (stereo not drawn) [Compound 18], the inhibition at 60 µM in series [1] (setting [6]) turned out to be 16%. Besides, in series [1] (setting [7]), the inhibition at 150 µM worked out at 67%.
Regarding `COc1ccc(CC2NC(=O)C34OC(=O)O/C=C/C(C)(O)C(=O)C(C)C/C=C/C3C(O)C(C)=C(C)C24)cc1` (stereo not drawn) [Compound 19], the inhibition at 150 µM in series [1] (setting [7]) amounted to 40%.
With `CC1=CC2/C=C(\C)CCC(O)C(O)/C=C/C(=O)OC23C(=O)NC(CC(C)C)C3C1C` (stereo not drawn) [Compound 20], in series [1] (setting [6]), the inhibition at 60 µM worked out at 92%. Moreover, the inhibition at 150 µM in series [1] (setting [7]) stood at 100%.
In the same order, the values of `CC1=CC2/C=C(\C)CCCC(O)/C=C/C(=O)OC23C(=O)NC(CC(C)C)C3C1C` (stereo not drawn) [Compound 21] are 64% and 100%.
As for `CC1=CC(/C=C(\C)CCC=O)C2(C(=O)/C=C/C=O)C(=O)NC(CC(C)C)C2C1C` (stereo not drawn) [Compound 22], the inhibition at 60 µM in series [1] (setting [6]) was found to be 91%. The inhibition at 150 µM in series [1] (setting [7]) stood at 100%.
Consider `CC1=CC2/C=C(\C)CCC(=O)C(=O)CCC(=O)C23C(=O)NC(CC(C)C)C3C1C` (stereo not drawn) [Compound 24, Aspochalasin A], for which, in series [1] (setting [6]), the inhibition at 60 µM came to 62%. Further, the inhibition at 150 µM in series [1] (setting [7]) was 80%.
In the same order, the values of `CC1=CC2/C=C(\C)CCC(O)C(=O)/C=C/C(=O)C23C(=O)NC(CC(C)C)C3C1C` (stereo not drawn) [Compound 25, Aspochalasin B] are 87% and 100%.
In the same order, the values of `CC1=CC2/C=C(\C)CCC(O)C(O)/C=C/C(=O)C23C(=O)NC(CC(C)C)C3C1C` (stereo not drawn) [Compound 26, Aspochalasin C] are 92% and 100%.
For the molecule `CC1=CC2/C=C(\C)CCC(O)C(O)/C=C/C(=O)C23C(=O)NC(CC(C)C)C3C1C` (stereo not drawn) [Compound 27, Aspochalasin D], the “The inhibition ratio (%) of the compound” value in series [1] (setting [6]) and in series [1] (setting [7]) was 100% in each case.
As for `CC1=CC2/C=C(\C)CCC(O)C(O)C(O)CC(=O)C23C(=O)NC(CC(C)C)C3C1C` (stereo not drawn) [Compound 28, Aspochalasin E], the inhibition at 60 µM in series [1] (setting [6]) stood at 31%. Also, the inhibition at 150 µM in series [1] (setting [7]) turned out to be 73%.
Turning to `CC(C)(C)n1nc(-c2ccc(Cl)cc2)c2c(N)ncnc21` [pp2, 4-amino-5-(4-chrolophenyl)-7-(tert-butyl)-pyrazolo[3,4-d]pyrimidine], the “amount of HIV-1 (RT activity count)” value in series [2] was “increased”.
Regarding Mer-WF1726 [Compound 12], the “The inhibition ratio (%) of the compound” value was 39% in series [1] (setting [4]) and 88% in series [1] (setting [5]).
For the molecule UCS15A [Compound 1], in series [3], the “live cells (Trypan blue)” value was “live cells were not decreased”. For the same molecule, the “The inhibition ratio (%) of the compound” value in series [1] (setting [6]) is given as 0%; in series [1] (setting [7]), 46%.
